In US9770452B2, “Quinoxaline derivatives as GPR6 modulators” (Takeda Pharmaceutical Company Limited, priority 2012, dated 2017) one finds IC50 data, which are given here for 36 compounds.

Counter-ions that a name gives are not always drawn. Like-named read-outs stand apart in the source and are kept apart here.

The experiment addresses T1, GPR6 receptor (Homo sapiens, UniProt P46095).
T1 construct: expressed in transfected cells
Briefly: Inhibition of cAMP Activity of GPR6 In Vitro Assay (CHO-K1 cells, HTRF cAMP). The class given is cell-based. The method, then:
Inhibition of cAMP Activity of GPR6 In Vitro Assay
This cell based assay measures the ability of compounds to inhibit the constitutive cAMP activity of GPR6 receptor expressed in CHO-K1 cells. CHO cells were stably expressed with GPR6 receptor, whose expression is controlled by a tetracycline inducable element. The cells were cultured in medium containing F12K, 10% FBS, 1% Penn/Strep, 200 ug/mL Hygromycin. GPR6 receptor expression was induced for 20 hrs with 1 μg/ml doxycycline (sigma D9891) in growth media. After addition of doxycycline cells were plated at a density of 250-500 cells per well in half-volume black clear bottom plates (Costar) and place in an incubator (37°, 5% C(O)2) for 20 hours prior to cAMP assays.
Culture media was removed from cells and they were washed with 50 μL of Ringer's Buffer (MgCl2 0.047 mg/mL, NaH2PO4 0.18 mg/mL, Na2HPO4 0.1 mg/mL, KCl 0.34 mg/mL, NaHC(O)3 1.26 mg/mL, D-glucose 1.8 mg/mL, NaCl 7 mg/mL; pH=7.4). Compounds suspended in DMSO were diluted in Ringer's Buffer containing 0.5% fatty acid free BSA and incubated on cells for 45 min at […] and 5% C(O)2. After incubation cells were incubated for 10 min at room temp with Eu-cAMP tracer solution from a Perkin Elmer Lance HTRF UltracAMP assay kit (TRF0264). Then ULight™-anti-cAMP solution from the Lance HTRF kit was added and incubated on a shaker at room temp for 1 hour prior to HTRF detection in a BMG PolarStar Omega.
IC50 curves were generated with a four-parameter logistic equation using GraphPad Prism 5.03.
Background: TR-FRET usually uses a lanthanide donor and a delayed reading to cut background.

[1] abbreviates: compounds of Compound Table 1, inhibition of constitutive cAMP activity of GPR6 expressed in CHO-K1 cells, approximate IC50, read-out: IC50.
[2] abbreviates: compounds of Compound Table 2, inhibition of constitutive cAMP activity of GPR6 expressed in CHO-K1 cells, approximate IC50, read-out: IC50.

T1 sequence (P46095 whole entry): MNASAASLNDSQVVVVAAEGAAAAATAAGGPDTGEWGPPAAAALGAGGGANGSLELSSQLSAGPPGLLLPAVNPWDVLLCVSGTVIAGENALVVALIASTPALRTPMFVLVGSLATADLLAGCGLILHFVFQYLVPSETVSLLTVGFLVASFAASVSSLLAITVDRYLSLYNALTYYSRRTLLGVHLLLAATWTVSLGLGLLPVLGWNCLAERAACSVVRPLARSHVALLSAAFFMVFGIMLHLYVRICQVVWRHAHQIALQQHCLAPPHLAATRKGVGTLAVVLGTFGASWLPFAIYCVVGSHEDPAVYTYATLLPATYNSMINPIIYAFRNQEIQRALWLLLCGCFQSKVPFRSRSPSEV

The IC50 is the concentration at which inhibition is half-maximal. “3-(4-(2,5-difluorobenzoyl)piperidin-1-yl)-2-(isopropylamino)-N,N-dimethylpyrido[3,4-b]pyrazine-7-carboxamide, 2,2,2-trifluoroacetic acid salt [Cpd 635]”: the half-maximal inhibitory concentration (IC50) under setting [1] came out at 40 nM. Still for that read-out and setting: to “3-(cyclopropylamino)-2-(4-((2,5-difluorophenyl)fluoromethyl)piperidin-1-yl)quinoxaline-6-carbonitrile, 2,2,2-trifluoroacetic acid salt [Cpd 484]” belongs 29 nM.

For the compound `N#Cc1ccc2nc(NC3CC3)c(C3CCN(Cc4cc(Cl)ccc4Cl)CC3)nc2c1` [Compound Table 2: Cpd 3, 2-(cyclopropylamino)-3-(1-(2,5-dichlorobenzyl)piperidin-4-yl)quinoxaline-6-carbonitrile, 2,2,2-trifluoroacetic acid salt], under setting [2], the IC50 turned out to be 840 nM. Still for that read-out and setting: then `CC1CN(C(=O)c2cc(Cl)ccc2Cl)CCN1c1nc2ccccc2nc1NC1CC1` (stereo not drawn) [Compound Table 2: Cpd 8, (4-(3-(cyclopropylamino)quinoxalin-2-yl)-3-methylpiperazin-1-yl)(2,5-dichlorophenyl)methanone, 2,2,2-trifluoroacetic acid salt], with 79600 nM. Consider `Fc1ccc(Nc2nc3ccccc3nc2N2CCN(Cc3cccc(Cl)c3)CC2)cc1` [Cpd 38, 3-(4-(3-chlorobenzyl)piperazin-1-yl)-N-(4-fluorophenyl)quinoxalin-2-amine, 2,2,2-trifluoroacetic acid salt], for which the 50% inhibitory concentration (IC50) under setting [1] worked out at 5730 nM. Consider “2-(cyclopropylamino)-3-(4-(m-tolylsulfonyl)piperazin-1-yl)quinoxaline-6-carbonitrile [Cpd 239]”, for which the IC50 under setting [1] was found to be 4740 nM. Same read-out and setting: to “5-chloro-1-((1-(2-(cyclopropylamino)pyrido[3,4-b]pyrazin-3-yl)piperidin-4-yl)methyl)pyridin-2(1H)-one [Cpd 532]” belongs 380 nM.

Take `COc1ccc(OC2CCN(c3nc4c(N5CCOCC5)nccc4nc3NC3CC3)CC2)c(F)c1` [Cpd 606, N-cyclopropyl-3-(4-(2-fluoro-4-methoxyphenoxy)piperidin-1-yl)-5-morpholinopyrido[3,4-b]pyrazin-2-amine, 2,2,2-trifluoroacetic acid salt]: the 50% inhibitory concentration (IC50) is 717 nM. In the case of “N-cyclopropyl-3-(4-(2,3,5-trichlorobenzyl)piperazin-1-yl)quinoxalin-2-amine, 2,2,2-trifluoroacetic acid salt [Cpd 221]”, the IC50 under setting [1] amounted to 20400 nM.

Turning to “(1-(2-(cyclopropylamino)pyrido[3,4-b]pyrazin-3-yl)piperidin-4-yl)(thiophen-3-yl)methanone, 2,2,2-trifluoroacetic acid salt [Cpd 584]”, the IC50 under setting [1] is 1740 nM. The same measure, in the same setting: to `N#Cc1ccc2nc(NC3CC3)c(N3CCC(C(F)c4ccc(F)cc4F)CC3)nc2c1` (stereo not drawn) [Cpd 481] belongs 24 nM; to `Clc1cccc(CN2CCN(c3nc4cccnc4nc3Nc3ccccc3)CC2)c1` [Cpd 22, 2-(4-(3-chlorobenzyl)piperazin-1-yl)-N-phenylpyrido[2,3-b]pyrazin-3-amine, 2,2,2-trifluoroacetic acid salt], 7670 nM. Consider “3-(4-((2,4-difluorophenyl)fluoromethyl)piperidin-1-yl)-N-isopropylpyrido[3,4-b]pyrazin-2-amine, 2,2,2-trifluoroacetic acid salt [Cpd 621]”, for which, under setting [1], the IC50 came to 21 nM. Same read-out and setting: to `Clc1ccc(NC2CCN(c3nc4ccccc4nc3NC3CC3)CC2)cc1` [Cpd 413, 3-(4-((4-chlorophenyl)amino)piperidin-1-yl)-N-cyclopropylquinoxalin-2-amine, 22,2,2-trifluoroacetic acid salt] belongs 19 nM; to “(2-bromopyridin-3-yl)(1-(2-(cyclopropylamino)pyrido[3,4-b]pyrazin-3-yl)piperidin-4-yl)methanone, 2,2,2-trifluoroacetic acid salt [Cpd 586]”, 2290 nM. As to “(2-bromophenyl)(1-(2-(cyclopropylamino)pyrido[3,4-b]pyrazin-3-yl)piperidin-4-yl)methanone, 2,2,2-trifluoroacetic acid salt [Cpd 585]”, under setting [1], the half-maximal inhibitory concentration (IC50) is 6040 nM. The same measure, in the same setting: to “2-(cyclopropylamino)-3-(4-(2-fluoro-4-methoxybenzyl)piperazin-1-yl)pyrido[3,4-b]pyrazine-5-carbonitrile, 2,2,2-trifluoroacetic acid salt [Cpd 613]” belongs 92 nM; to “3-(4-(2,4-difluorobenzyl)piperazin-1-yl)-N-isopropylpyrazino[2,3-d]pyridazin-2-amine 2,2,2-trifluoroacetate [Cpd 650]”, 1000 nM; to “3-(1-(7-bromo-2-(cyclopropylamino)pyrido[3,4-b]pyrazin-3-yl)piperidine-4-carbonyl)-4-fluorobenzonitrile [Cpd 602]”, 146 nM. Take “(R)—N-cyclopropyl-3-(4-((2,4-difluorophenyl)fluoromethyl)piperidin-1-yl)pyrazino[2,3-d]pyridazin-2-amine, 2,2,2-trifluoroacetic acid salt [Cpd 599]”: the IC50 under setting [1] was 5 nM. For the compound “(S)-3-(cyclopropylamino)-2-(4-((2,4-difluorophenyl)fluoromethyl)piperidin-1-yl)quinoxaline-6-carbonitrile [Cpd 509]”, the 50% inhibitory concentration (IC50) under setting [1] was 49 nM.

For the compound `CC1CN(Cc2cc(Cl)ccc2Cl)CCN1c1nc2ccccc2nc1NC1CC1` (stereo not drawn) [Compound Table 2: Cpd 7, N-cyclopropyl-3-(4-(2,5-dichlorobenzyl)-2-methylpiperazin-1-yl)quinoxalin-2-amine], the IC50 under setting [2] is 6640 nM. With “3-(4-((5-chloro-2-fluorophenyl)difluoromethyl)piperidin-1-yl)-N-cyclopropylpyrido[3,4-b]pyrazin-2-amine [Cpd 539]”, the 50% inhibitory concentration (IC50) under setting [1] was found to be 770 nM. On the same count and under the same terms, to “3-(4-((2,4-difluorophenyl)fluoromethyl)piperidin-1-yl)-N-(2-methoxyethyl)pyrido[3,4-b]pyrazin-2-amine, 2,2,2-trifluoroacetic acid salt [Cpd 520]” belongs 30 nM. On the same count and under the same terms, then “3-(4-(2-fluoro-4-methoxyphenoxy)piperidin-1-yl)-2-(isopropylamino)pyrido[3,4-b]pyrazine-7-carbonitrile, 2,2,2-trifluoroacetic acid salt [Cpd 628]”, with 276 nM. With `CC(C)Nc1nc2cnncc2nc1N1CCC(Oc2ccc(F)cc2F)CC1` [Cpd 633, 3-(4-(2,4-difluorophenoxy)piperidin-1-yl)-N-isopropylpyrazino[2,3-d]pyridazin-2-amine, 2,2,2-trifluoroacetic acid salt], the IC50 under setting [1] is 4 nM. On the same count and under the same terms, then “2-(cyclopropylamino)-3-(4-(2,4-difluorophenoxy)piperidin-1-yl)-N,N-dimethylpyrido[3,4-b]pyrazine-7-carboxamide [Cpd 597]”, with 89 nM; and “3-(4-(4-chloro-2-fluorophenoxy)piperidin-1-yl)-N-isopropylpyrazino[2,3-d]pyridazin-2-amine, 2,2,2-trifluoroacetic acid salt [Cpd 643]”, with 15 nM. Same read-out and setting: then “N-cyclopropyl-3-(4-((2,5-difluorophenyl)difluoromethyl)piperidin-1-yl)pyrido[3,4-b]pyrazin-2-amine [Cpd 540]”, with 46 nM; and `COc1ccc(Br)c(C(=O)N2CCN(c3nc4ccccc4nc3NC3CC3)CC2)c1` [Cpd 85, (2-bromo-5-methoxyphenyl)(4-(3-(cyclopropylamino)quinoxalin-2-yl)piperazin-1-yl)methanone, 2,2,2-trifluoroacetic acid salt], with 7550 nM; and “2-(cyclobutylamino)-3-(4-(2,5-dichlorobenzyl)piperazin-1-yl)quinoxaline-6-carbonitrile, 2,2,2-trifluoroacetic acid salt [Cpd 336]”, with 960 nM.

Take “3-(1-(2-(cyclopropylamino)pyrido[3,4-b]pyrazin-3-yl)piperidine-4-carbonyl)-4-fluorobenzonitrile, 2,2,2-trifluoroacetic acid salt [Cpd 587]”: the 50% inhibitory concentration (IC50) under setting [1] was 78 nM. Regarding “N-cyclopropyl-3-(4-(4-methoxyphenoxy)piperidin-1-yl)pyrido[3,4-b]pyrazin-2-amine [Cpd 552]”, under setting [1], the IC50 came out at 24 nM. As for `Cc1cc(C(=O)N2CCN(c3nc4ccccc4nc3NC3CC3)CC2)no1` [Cpd 98, (4-(3-(cyclopropylamino)quinoxalin-2-yl)piperazin-1-yl)(5-methylisoxazol-3-yl)methanone], the 50% inhibitory concentration (IC50) under setting [1] came to 3210 nM. As for “N-cyclopropyl-3-(4-(3-isopropylbenzyl)piperazin-1-yl)quinoxalin-2-amine, 2,2,2-trifluoroacetic acid salt [Cpd 211]”, the IC50 under setting [1] amounted to 9440 nM. Still for that read-out and setting: to “2-(cyclopropylamino)-3-(4-(2,5-difluorobenzyl)piperazin-1-yl)quinoxaline-6-carbonitrile, 2,2,2-trifluoroacetic acid salt [Cpd 257]” belongs 310 nM.
